According to the NIST ThermoML archive (doi:10.1016/j.jct.2011.02.006):

How the values were obtained:
[1] = Molar enthalpy of transition or fusion; conditions: Crystal; DSC
[2] = for viscosity / mass density: 101.33 kPa, Liquid; for viscosity: Falling or rolling sphere viscometry; for mass density: Vibrating tube method

CCCC[n+]1ccc2ccccc2c1.O=S(=O)([N-]S(=O)(=O)C(F)(F)F)C(F)(F)F [2-butylisoquinolinium bis[(trifluoromethyl)sulfonyl]amide]
Conditions | Molar enthalpy of transition or fusion [kcal/mol]
[1] | 11

[2]
Conditions | mass density [kg/m3] | viscosity [mPa·s]
323.2 K | 1413.21 | 71.07
328.2 K | 1408.78 | 56.23
333.2 K | 1404.32 | 45.14
338.2 K | 1399.88 | 38.46
343.2 K | 1395.47 | 32.08
348.2 K | 1391.06 | 27.1
353.2 K | 1386.66 | 23.02
358.2 K | 1382.26 | 19.87
363.2 K | 1377.88 | 16.14

[2], DTA
Conditions | Glass transition temperature [°C] | Normal melting temperature [°C]
Crystal | – | 48
Glass | -55.2 | –
